Source: ChEMBL document CHEMBL1201862, “PubChem BioAssay data set” (2004)
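Cells were grown in 96-well plates and exposed to each compound for 48 hours at five concentrations; endpoints were interpolated linearly between bracketing concentrations, or set to the highest concentration if not reached. At the GI50, growth is halved.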 Calls of active or inactive are those of the source. Rule as the data show it: active = GI50 up to about 1.1 µM and inactive = higher.

Tests used:
Assay in all cases: NCI anticancer screen, dose series, 48 h
CCRF-CEM = test system: CCRF-CEM
SK-MEL-2 = test system: SK-MEL-2
MDA-N = test system: MDA-N
DU-145 = test system: DU-145
786-0 = test system: 786-0
UO-31 = test system: UO-31
SK-MEL-5 = test system: SK-MEL-5
A549 = test system: A549
HCT-15 = test system: HCT-15
A498 = test system: A498
SK-OV-3 = test system: SK-OV-3
SF-268 = test system: SF-268
EKVX = test system: EKVX
SF-295 = test system: SF-295
TK-10 = test system: TK-10
MOLT-4 = test system: MOLT-4
KM12 = test system: KM12
Hs-578T = test system: Hs-578T
SN12C = test system: SN12C
SW-620 = test system: SW-620

Row | Structure (SMILES) | GI50 (CCRF-CEM) | GI50 (SK-MEL-2) | GI50 (MDA-N) | GI50 (DU-145) | GI50 (786-0) | GI50 (UO-31) | GI50 (SK-MEL-5) | GI50 (A549) | GI50 (HCT-15) [µM] | GI50 (A498) | GI50 (SK-OV-3) | GI50 (SF-268) | GI50 (EKVX) | GI50 (SF-295) | GI50 (TK-10) | GI50 (MOLT-4) | GI50 (KM12) | GI50 (Hs-578T) | GI50 (SN12C) | GI50 (SW-620)
1 | CCc1ccc2c(c1)/C(=C1/Nc3ccccc3C1=O)C(=O)N2 | 36.1 µM (inactive) | 17.1 µM (inactive) | 34.5 µM (inactive) | 41.3 µM (inactive) | 5.78 µM (inactive) | 7.38 µM (inactive) | 9.62 µM (inactive) | 13.8 µM (inactive) | 31.7 | 4.13 µM (inactive) | 10.3 µM (inactive) | 19.6 µM (inactive) | 5.36 µM (inactive) | 20.2 µM (inactive) | 17 µM (inactive) | 19.2 µM (inactive) | 0.428 µM (active) | 11 µM (inactive) | 68.2 µM (inactive) | 63.2 µM (inactive)
2 | O=C(NC(Cc1c[nH]c2ccccc12)C(=O)O)/C(=C/c1ccccc1)NC(=O)c1ccccc1 (stereo not given) | > 66.4 µM (inactive) | 57.5 µM (inactive) | 82.4 µM (inactive) | 79.8 µM (inactive) | > 100 µM (inactive) | 53.2 µM (inactive) | 37 µM (inactive) | 38.2 µM (inactive) | > 55.1 | > 81.8 µM (inactive) | 54.2 µM (inactive) | > 100 µM (inactive) | 42.7 µM (inactive) | 36.4 µM (inactive) | > 72.8 µM (inactive) | 51.1 µM (inactive) | 57.9 µM (inactive) | 28.5 µM (inactive) | > 100 µM (inactive) | > 100 µM (inactive)
3 | O=C(CCC1CCCCN1)Nc1ccc2c(c1)C(=O)c1ccc(NC(=O)CCN3CCCCC3)cc1C2=O (stereo not given) | 8.73 µM (inactive) | 1.37 µM (inactive) | > 10 µM (inactive) | > 10 µM (inactive) | 9.75 µM (inactive) | 1.21 µM (inactive) | 1.4 µM (inactive) | 5.19 µM (inactive) | 1.58 | 4.14 µM (inactive) | 5.3 µM (inactive) | 3.3 µM (inactive) | > 10 µM (inactive) | 3.56 µM (inactive) | 1.22 µM (inactive) | 1.95 µM (inactive) | 2.33 µM (inactive) | > 10 µM (inactive) | 1.91 µM (inactive) | > 10 µM (inactive)
4 | CC1=NN(C(=O)c2ccncc2)C(=O)C1/N=N/c1ccc2ccccc2c1 (stereo not given) | 64.6 µM (inactive) | 14.7 µM (inactive) | 2.94 µM (inactive) | > 73.5 µM (inactive) | > 100 µM (inactive) | > 100 µM (inactive) | 19.2 µM (inactive) | 28.1 µM (inactive) | 7.41 | > 100 µM (inactive) | > 100 µM (inactive) | 69 µM (inactive) | 2.71 µM (inactive) | 91 µM (inactive) | 60.3 µM (inactive) | 5.32 µM (inactive) | 17.1 µM (inactive) | 5.2 µM (inactive) | > 100 µM (inactive) | 38.7 µM (inactive)
5 | CC(O)(C(=O)N(O)c1ccc(Cl)cc1)c1ccc(Cl)cc1 (stereo not given) | 6.08 µM (inactive) | 22.2 µM (inactive) | 41.1 µM (inactive) | 34.4 µM (inactive) | 28.8 µM (inactive) | 26.1 µM (inactive) | 18.7 µM (inactive) | 26.4 µM (inactive) | 19.2 | 25.5 µM (inactive) | 33.1 µM (inactive) | 23.7 µM (inactive) | 39.3 µM (inactive) | 27.3 µM (inactive) | 29.7 µM (inactive) | 12.5 µM (inactive) | 12.8 µM (inactive) | 16.9 µM (inactive) | 37.4 µM (inactive) | 31.3 µM (inactive)
6 | Cc1ccc(S(=O)(=O)N/N=C2/CC3CCC4CC2CC34)cc1 (stereo not given) | > 100 µM (inactive) | > 100 µM (inactive) | > 100 µM (inactive) | > 100 µM (inactive) | > 100 µM (inactive) | 25.4 µM (inactive) | 84.7 µM (inactive) | > 100 µM (inactive) | > 100 | > 100 µM (inactive) | > 100 µM (inactive) | > 100 µM (inactive) | 61.5 µM (inactive) | > 100 µM (inactive) | > 100 µM (inactive) | > 100 µM (inactive) | > 100 µM (inactive) | 88.3 µM (inactive) | > 100 µM (inactive) | > 100 µM (inactive)
7 | CN(CCNCc1cn(C)c2c1ccc1ccccc12)CCNCc1cn(C)c2c1ccc1ccccc12 | 0.711 µM (active) | 1.79 µM (inactive) | 1.77 µM (inactive) | 1.64 µM (inactive) | 0.881 µM (active) | 1.39 µM (inactive) | 1.87 µM (inactive) | 1.45 µM (inactive) | 1.46 | 0.188 µM (active) | 1.76 µM (inactive) | 1.58 µM (inactive) | 1.72 µM (inactive) | 1.79 µM (inactive) | 1.64 µM (inactive) | 1.09 µM (active) | 1.51 µM (inactive) | 1.64 µM (inactive) | 1.56 µM (inactive) | 1.35 µM (inactive)
